Test system: ibrutinib-resistant cell lines
Experiment: Pre-clinical proliferation in ibrutinib-resistant cell lines
Assay type: cell-based
Excerpt: A formulation of the disclosure comprising 2-(1-(4-((4-(4-hydroxypiperidin-1-yl)phenyl)amino)-5-oxo-5,6-dihydropyrimido[4,5-d]pyridazin-2-yl)piperidin-4-yl)acetonitrile comprises a potent inhibitor of Spleen Tyrosine Kinase (SYK) and Janus Kinases (JAK).

`N#CCC1CCN(c2nc(Nc3ccc(N4CCC(O)CC4)cc3)c3c(=O)[nH]ncc3n2)CC1` [Compound 1, 2-(1-(4-((4-(4-hydroxypiperidin-1-yl)phenyl)amino)-5-oxo-5,6-dihydropyrimido[4,5-d]pyridazin-2-yl)piperidin-4-yl)acetonitrile] was tested, and the proliferation was “decreases proliferation”.

— patent US12036224B2, “Formulations, methods, kits, and dosage forms for treating atopic dermatitis and for improved stability of an active pharmaceutical ingredient” (Libertas Bio, Inc., priority 2017, dated 2024)
